According to US20030190378A1, “Extract of processed Panax genus plant, the preparation method thereof, and compositions containing the same” (priority 2002, published 2003):

Experiments:
ICR mouse = assay: Passive cutaneous anaphylaxis test (Evans blue leakage); assay type: in vivo; conditions: for anti-allergic effect in words, passive cutaneous anaphylaxis: Tables 5 and 6
Procedure: 50 μl of diluted solution with physiological saline containing 10 μg of mouse IgE serum against dinitrophenol-human serum album (DNP-HSA, Sigma, USA), was injected to the back of ICR mouse (Dae Han Co., Ltd) anesthetized with ether to be passive sensitization. After 48 hours, 0.2 ml of physiological saline solution containing 0.2 mg of DNP-HSA and 1.6 mg of Evans blue was injected to the mouse's tail vein and the mouse was sacrificed by cervical dislocation to death and then the amount of Evans blue dye leaked to mouse's back was measured as follows. Certain circular area of mouse's back distant from the area where IGE injected about 1 cm^2 far, was cut and put into a test tube. 4 ml of mixture solution of 0.6M phosphoric acid and acetone with a ratio of 5:13 was added to the tube, stirred and filtered. The amount of dye was measured by colorimetric analysis at 620 nm.

RBL-2H3 cell line = assay: Anti-allergic effect using IgE-sensitized, DNP-BSA-activated RBL-2H3 cell line (p-NAG substrate readout); assay type: cell-based, rat; conditions: for Anti-allergic effect in RBL cell IC50 / IC50: Table 4, saponin fractions and isolated saponins; for anti-allergic effect in words, allergy inhibition test using RBL-2H3 cell line: Tables 3 and 4; for IC50: Rattus norvegicus
Procedure: In order to confirm the anti-allergic effect of the extracts in the present invention, the experiment was performed by the procedure described in the literature (Inagaki. et al., Int, Arch. Allergy Appl. Immunol., 87, pp254-259, 1988).
RBL-2H3 cell line (rat basophil cell line, Korean Cell Line Bank, Cat. No.22256) were incubated with DMEM (Dulbecco's modified Eagle's) medium (Sigma No. D-5648, USA) containing 10% FBS (Fetal Bovine Serum), L-glutamine for 2 hours at 37° C. by using humidified 5% CO2 incubator and attached cells were floated by trypsin-EDTA solution, separated and recovered to use in further experiment. Each RBL-2H3 cells were transferred to 24 well plate to be adjusted to 5×10^5 cells/well, treated with 0.5 μg of mouse monoclonal IgE and incubated for 12 hours to be sensitization. The cell was washed with 0.5 ml of siraganian buffer solution (pH 7.2) composed of 119 mM NaCl, 5 mM KCl, 0.4 mM MgCl2, 25 mM PIPES and 40 mM NaOH. 0.16 ml of siraganian buffer solution containing 5.5 mM glucose, 1 mM CaCl2 and 0.1% BSA, was added thereto again and incubated for 10 minutes at 37° C. Thereafter, 40 μl of test sample solution containing the extract in the Comparative Example 1, 2, 3 and Example 1, 2, 3 were added thereto. After 20 minutes, the cells were activated by adding 0.02 ml of antigen, 1 μg/ml of DNP-BSA, for 10 minutes at 37° C., centrifuged at the speed of 2000 rpm for 10 minutes and 0.025 ml of the supernatant was transferred to 96 well plate. 0.025 ml of 1 mM p-NAG substrate solution prepared by dissolving p-nitrophenyl-N-acetyl-β-D-glucosaminide with 0.1M citrate buffer solution adjusted to pH 4.5, was added thereto, incubated for 60 minutes at 37° C. and 0.2 ml of 0.1M Na2CO3/NaHCO3 was added thereto to quench the reaction to measure their optical density at 405 nm by ELISA analyzer.

Molecule | Passive cutaneous anaphylaxis Inhibitory rate (%) Abdominal administration (ICR mouse; Table 6, 25 mg/kg abdominal) | Anti-allergic effect in RBL cell IC50 (RBL-2H3 cell line) | other results
CC(C)=CCC=C(C)[C@H]1CC[C@]2(C)[C@@H]1[C@H](O)C[C@@H]1[C@@]3(C)CC[C@H](O)C(C)(C)[C@@H]3[C@@H](O[C@@H]3O[C@H](CO)[C@@H](O)[C@H](O)[C@H]3O[C@@H]3O[C@@H](C)[C@H](O)[C@@H](O)[C@H]3O)C[C@]12C (stereo in doubt) [Ginsenoside F4] | 63% | – | –
CC(C)=CCC[C@@](C)(O)[C@H]1CC[C@]2(C)[C@@H]1[C@H](O)C[C@@H]1[C@@]3(C)CC[C@H](O[C@@H]4O[C@H](CO)[C@@H](O)[C@H](O)[C@H]4O)C(C)(C)[C@@H]3CC[C@]12C [20(R)-ginsenoside Rh2] | – | >0.2 µg/mL | –
CC(C)=CCC[C@@](C)(O)[C@H]1CC[C@]2(C)[C@@H]1[C@H](O)C[C@@H]1[C@@]3(C)CC[C@H](O)C(C)(C)[C@@H]3CC[C@]12C [20(R)-protopanaxadiol] | – | >0.2 µg/mL | –
CC(C)=CCC[C@](C)(O)[C@H]1CC[C@]2(C)[C@@H]1[C@H](O)C[C@@H]1[C@@]3(C)CC[C@H](O[C@@H]4O[C@H](CO)[C@@H](O)[C@H](O)[C@H]4O[C@@H]4O[C@H](CO)[C@@H](O)[C@H](O)[C@H]4O)C(C)(C)[C@@H]3CC[C@]12C [20(S)-ginsenoside Rg3] | – | >0.2 µg/mL | –
CC(C)=CCC[C@](C)(O)[C@H]1CC[C@]2(C)[C@@H]1[C@H](O)C[C@@H]1[C@@]3(C)CC[C@H](O[C@@H]4O[C@H](CO)[C@@H](O)[C@H](O)[C@H]4O)C(C)(C)[C@@H]3CC[C@]12C [20(S)-ginsenoside Rh2] | – | 0.03 µg/mL | –
CC(C)=CCC[C@](C)(O)[C@H]1CC[C@]2(C)[C@@H]1[C@H](O)C[C@@H]1[C@@]3(C)CC[C@H](O)C(C)(C)[C@@H]3CC[C@]12C [20(S)-protopanaxadiol] | – | >0.2 µg/mL | –
O=C([O-])c1cc(=O)c2c(OCC(O)COc3cccc4oc(C(=O)[O-])cc(=O)c34)cccc2o1.[Na+].[Na+] [DSCG, Disodium Cromoglycate, reference compound] | – | 0.498 µg/mL | Passive cutaneous anaphylaxis Inhibitory rate (%) (ICR mouse; Table 5, 100 mg/kg): 37%; Passive cutaneous anaphylaxis Inhibitory rate (%) Oral administration (ICR mouse; Table 6, 100 mg/kg oral): 37%
CC(C)=CC/C=C(\C)[C@H]1CC[C@]2(C)[C@@H]1[C@H](O)C[C@@H]1[C@@]3(C)CC[C@H](O[C@@H]4O[C@H](CO)[C@@H](O)[C@H](O)[C@H]4O[C@@H]4O[C@H](CO)[C@@H](O)[C@H](O)[C@H]4O)C(C)(C)[C@@H]3CC[C@]12C [Gginsenoside Rg5, ginsenoside Rg5] | 45% | – | –
CC(C)=CCC[C@](C)(O[C@@H]1O[C@H](CO)[C@@H](O)[C@H](O)[C@H]1O)[C@H]1CC[C@]2(C)[C@@H]1[C@H](O)C[C@@H]1[C@@]3(C)CC[C@H](O)C(C)(C)[C@@H]3[C@@H](O)C[C@]12C [Ginsenoside F1] | 69% | 0.13 µg/mL | anti-allergic effect in words, passive cutaneous anaphylaxis (ICR mouse): more potent inhibitory effects than that of DSCG; anti-allergic effect in words, allergy inhibition test using RBL-2H3 cell line (RBL-2H3 cell line): more potent inhibition effect than that of DSCG
CC(C)=CCC[C@](C)(O[C@@H]1O[C@H](CO[C@@H]2O[C@H](CO)[C@@H](O)[C@H](O)[C@H]2O)[C@@H](O)[C@H](O)[C@H]1O)[C@H]1CC[C@]2(C)[C@@H]1[C@H](O)C[C@@H]1[C@@]3(C)CC[C@H](O[C@@H]4O[C@H](CO)[C@@H](O)[C@H](O)[C@H]4O[C@@H]4O[C@H](CO)[C@@H](O)[C@H](O)[C@H]4O)C(C)(C)[C@@H]3CC[C@]12C [Ginsenoside Rb1] | – | >0.2 µg/mL | Passive cutaneous anaphylaxis Inhibitory rate (%) Abdominal administration (ICR mouse; Table 6, 50 mg/kg abdominal): 17%
CC(C)=CCC[C@](C)(O[C@@H]1O[C@H](CO[C@@H]2OC[C@H](O)[C@H](O)[C@H]2O)[C@@H](O)[C@H](O)[C@H]1O)[C@H]1CC[C@]2(C)[C@@H]1[C@H](O)C[C@@H]1[C@@]3(C)CC[C@H](O[C@@H]4O[C@H](CO)[C@@H](O)[C@H](O)[C@H]4O[C@@H]4O[C@H](CO)[C@@H](O)[C@H](O)[C@H]4O)C(C)(C)[C@@H]3CC[C@]12C [Ginsenoside Rb2] | 12% | >0.2 µg/mL | –
CC(C)=CCC[C@](C)(O[C@@H]1O[C@H](CO)[C@@H](O)[C@H](O)[C@H]1O)[C@H]1CC[C@]2(C)[C@@H]1[C@H](O)C[C@@H]1[C@@]3(C)CC[C@H](O)C(C)(C)[C@@H]3[C@@H](O[C@@H]3O[C@H](CO)[C@@H](O)[C@H](O)[C@H]3O[C@@H]3O[C@@H](C)[C@H](O)[C@@H](O)[C@H]3O)C[C@]12C [Ginsenoside Re] | 15% | – | IC50 (RBL-2H3 cell line): 0.06 µg/mL
CC(C)=CCC[C@](C)(O)[C@H]1CC[C@]2(C)[C@@H]1[C@H](O)C[C@@H]1[C@@]3(C)CC[C@H](O)C(C)(C)[C@@H]3[C@@H](O[C@@H]3O[C@H](CO)[C@@H](O)[C@H](O)[C@H]3O[C@@H]3O[C@H](CO)[C@@H](O)[C@H](O)[C@H]3O)C[C@]12C [Ginsenoside Rf] | 40% | – | IC50 (RBL-2H3 cell line): 0.11 µg/mL
CC(C)=CCC[C@](C)(O[C@@H]1O[C@H](CO)[C@@H](O)[C@H](O)[C@H]1O)[C@H]1CC[C@]2(C)[C@@H]1[C@H](O)C[C@@H]1[C@@]3(C)CC[C@H](O)C(C)(C)[C@@H]3[C@@H](O[C@@H]3O[C@H](CO)[C@@H](O)[C@H](O)[C@H]3O)C[C@]12C [Ginsenoside Rg1] | 37% | 0.08 µg/mL | –
CC(C)=CCC[C@](C)(O)[C@H]1CC[C@]2(C)[C@@H]1[C@H](O)C[C@@H]1[C@@]3(C)CC[C@H](O[C@@H]4O[C@H](CO)[C@@H](O)[C@H](O)[C@H]4O[C@@H]4O[C@H](CO)[C@@H](O)[C@H](O)[C@H]4O)C(C)(C)[C@@H]3CC[C@]12C [Ginsenoside Rg3] | – | – | Passive cutaneous anaphylaxis Inhibitory rate (%) Abdominal administration (ICR mouse; Table 6, abdominal, dosage cell empty): 47%; Passive cutaneous anaphylaxis Inhibitory rate (%) Oral administration (ICR mouse; Table 6, oral, dosage cell empty): 38%
CC(C)=CCC[C@](C)(O)[C@H]1CC[C@]2(C)[C@@H]1[C@H](O)C[C@@H]1[C@@]3(C)CC[C@H](O)C(C)(C)[C@@H]3[C@@H](O[C@@H]3O[C@H](CO)[C@@H](O)[C@H](O)[C@H]3O)C[C@]12C [Ginsenoside Rh1] | 87% | 0.02 µg/mL | Passive cutaneous anaphylaxis Inhibitory rate (%) Oral administration (ICR mouse; Table 6, 25 mg/kg oral): 79%; anti-allergic effect in words, passive cutaneous anaphylaxis (ICR mouse): more potent inhibitory effects than that of DSCG; anti-allergic effect in words, allergy inhibition test using RBL-2H3 cell line (RBL-2H3 cell line): more potent inhibition effect than that of DSCG
CC(C)=CCC[C@](C)(O)[C@H]1CC[C@]2(C)[C@@H]1[C@H](O)C[C@@H]1[C@@]3(C)CC[C@H](O[C@@H]4O[C@H](CO)[C@@H](O)[C@H](O)[C@H]4O)C(C)(C)[C@@H]3CC[C@]12C [Ginsenoside Rh2] | 88% | – | Passive cutaneous anaphylaxis Inhibitory rate (%) Oral administration (ICR mouse; Table 6, 25 mg/kg oral): 36%; anti-allergic effect in words, passive cutaneous anaphylaxis (ICR mouse): more potent inhibitory effects than that of DSCG; anti-allergic effect in words, allergy inhibition test using RBL-2H3 cell line (RBL-2H3 cell line): more potent inhibition effect than that of DSCG
CC(C)=CCC[C@@](C)(O)[C@H]1CC[C@]2(C)[C@@H]1[C@H](O)C[C@@H]1[C@@]3(C)CC[C@H](O)C(C)(C)[C@@H]3CC[C@]12C [protopanaxadiol] | 25% | – | –
Δ^20-ginsenoside Rg3 | – | 0.09 µg/mL | –
